Measurements published in patent US9701638B2, “Therapeutic hydroxyquinolones” (RUTGERS, THE STATE UNIVERSITY OF NEW JERSEY, priority 2012, dated 2017).

target: Pandemic 2009 H1N1 influenza A endonuclease (PAN domain, residues 1-204) (Influenza A virus (strain swl A/California/04/2009 H1N1), UniProt C3W5S0); test: Endonuclease assay (FAM/MGBNFQ fluorescent probe cleavage by PAN); assay type: biochemical, influenza A virus (pandemic 2009 H1N1); settings: endonuclease inhibition; 25 nM endonuclease, 50 nM probe, 37 degrees Celsius, fluorescence change over time
Excerpt: A TaqMan-like oligonucleotide was used containing a 6-carboxy-fluorescein (FAM) fluorophore at the 5′-end followed by 19 nucleotides and a minor groove binding non-fluorescent quencher (MGBNFQ, Applied Biosystems) at the 3′-end. When excited by light at a wavelength of 488 nm, MGBNFQ quenches the fluorescence of FAM via fluorescence resonance energy transfer. If the endonuclease cleaves the oligonucleotide, the quencher is no longer coupled to the fluorophore, and therefore, FAM fluoresces. This assay can be performed in a high-throughput (e.g. 96 well plate) format.
The reaction mixture is set up as a master mix with the buffer, probe, and protein on ice. […] Varioskan Fluorometer (Thermo Scientific), set to an excitation of 488 nm and emission of 518 nm, is used to measure the fluorescence of the samples at 37 degrees Celsius. Fluorescence is measured at various time points (5, 120, and 240 minutes) during the 37 degrees Celsius incubation. Activity/inhibition is calculated based on the change in fluorescence over time using Prism Graphpad non-linear regression analysis.

SMILES | IC50 [µM]
O=c1[nH]c2ccccc2c(Br)c1O [Example 2, 4-bromo-3-hydroxyquinolin-2(1H)-one] | 53
O=c1[nH]c2cccc(Br)c2cc1O [Example 3, 5-bromo-3-hydroxyquinolin-2(1H)-one] | 12.2
O=c1[nH]c2ccc(Br)cc2cc1O [Example 4, 6-bromo-3-hydroxyquinolin-2(1H)-one] | 7.4
O=c1[nH]c2cc(Br)ccc2cc1O [Example 5, 7-bromo-3-hydroxyquinolin-2(1H)-one] | 7.6
O=c1[nH]c2c(Br)cccc2cc1O [Example 6, 8-bromo-3-hydroxyquinolin-2(1H)-one] | 10.6
O=c1[nH]c2ccccc2c(-c2ccc(F)cc2)c1O [Example 7] | 10.8
O=c1[nH]c2cccc(-c3ccc(F)cc3)c2cc1O [Example 8, 5-(4-fluorophenyl)-3-hydroxyquinolin-2(1H)-one] | 3.3
O=c1[nH]c2ccc(-c3ccc(F)cc3)cc2cc1O [Example 9, 6-(4-fluorophenyl)-3-hydroxyquinolin-2(1H)-one] | 0.56
O=c1[nH]c2cc(-c3ccc(F)cc3)ccc2cc1O [Example 10, 7-(4-fluorophenyl)-3-hydroxyquinolin-2(1H)-one] | 0.56
O=c1[nH]c2c(-c3ccc(F)cc3)cccc2cc1O [Example 11, 8-(4-fluorophenyl)-3-hydroxyquinolin-2(1H)-one] | 4.7
O=c1[nH]c2cc(-c3ccc(F)cc3)ccc2c(Br)c1O [Example 12, 4-bromo-7-(4-fluorophenyl)-3-hydroxyquinolin-2(1H)-one] | 1.1
O=c1[nH]c2ccccc2c(-c2ccccc2)c1O [Example 13, 4-Phenyl-3-hydroxyquinolin-2(1H)-one] | > 20
Cc1c(O)c(=O)[nH]c2ccccc12 [Example 14, 4-Methyl-3-hydroxyquinolin-2(1H)— one] | > 100
O=c1[nH]c2cc(-c3ccc(F)cc3)ccc2c(-c2ccccc2)c1O [Example 15, 4-Phenyl-7-(4-fluorophenyl)-3-hydroxyquinolin-2(1H)-one] | 2
Cc1c(O)c(=O)[nH]c2cc(-c3ccc(F)cc3)ccc12 [Example 16] | 13.2
